In the supplement of paper PMC11451515:

How the values were obtained:
Conditions in all cases: 48 h
[1] = tested on: NOMO1; assay: cell viability relative to DMSO control; higher = less cytotoxic
Method in brief: (§1)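 NOMO1 or SEM cells were plated at 500 cells/well and P12-Ichikawa cells at 1000 cells/well in 1536-well plates (5 μl), after each leukemia line had been adapted for at least four passages in each medium. Pin dosing delivered library compounds in DMSO at 11 threefold concentrations, 47 μM to 0.79 nM. CellTiter-Glo One luminescence was read after 48 h at 37°C. Viability is reported as a per-plate percentage of DMSO wells, with cell-free wells as background.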

[2] = tested on: P12-Ichikawa; assay: as above
Method in brief: as §1

[3] = tested on: SEM cells; assay: as above
Method in brief: as §1

[4] = tested on: NOMO1; assay: AUC of viability dose-response curve (% viability x log10 dose units); higher = less sensitive
Method in brief: (§2)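 Leukemia cells adapted to each medium (500 or 1000 cells/well, 1536-well plates) were exposed to library compounds in DMSO for 48 h at 37°C at 11 threefold doses, 47 μM to 0.79 nM. Luminescence by CellTiter-Glo One was normalised per plate to DMSO and cell-free wells, then fitted with a four-parameter log-logistic curve on log10 dose. Curves above full viability were scaled and quality-control failures removed before area under the curve was integrated by trapezoidal rule.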

[5] = tested on: P12-Ichikawa; assay: as above
Method in brief: as §2

[6] = tested on: SEM cells; assay: as above
Method in brief: as §2

OC1=C(O)C2=C(\C=C/C(=O)O2)C=C1
cell viability [%]
Conditions | [1] | [2] | [3]
HPLM + 10% dialyzed FBS, 0.000781 µM | 102 | 99 | 82.7
HPLM + 10% dialyzed FBS, 0.00234 µM | 111 | 104 | 94.1
HPLM + 10% dialyzed FBS, 0.00702 µM | 109 | 114 | 90.2
HPLM + 10% dialyzed FBS, 0.0211 µM | 116 | 107 | 101
HPLM + 10% dialyzed FBS, 0.0632 µM | 113 | 101 | 65.4
HPLM + 10% dialyzed FBS, 0.19 µM | 108 | 119 | 102
HPLM + 10% dialyzed FBS, 0.569 µM | 103 | 114 | 98.4
HPLM + 10% dialyzed FBS, 1.71 µM | 109 | 117 | 103
HPLM + 10% dialyzed FBS, 5.12 µM | 111 | 114 | 99.1
HPLM + 10% dialyzed FBS, 15.4 µM | 115 | 107 | 93.9
HPLM + 10% dialyzed FBS, 46.1 µM | 128 | 81.1 | 9.29
RPMI 5 mM glucose + 10% FBS, 0.000781 µM | 99.7 | 109 | 91.8
RPMI 5 mM glucose + 10% FBS, 0.00234 µM | 105 | 115 | 106
RPMI 5 mM glucose + 10% FBS, 0.00702 µM | 105 | 118 | 98.1
RPMI 5 mM glucose + 10% FBS, 0.0211 µM | 116 | 110 | 91.6
RPMI 5 mM glucose + 10% FBS, 0.0632 µM | 106 | 99.4 | 70
RPMI 5 mM glucose + 10% FBS, 0.19 µM | 96.5 | 113 | 91.8
RPMI 5 mM glucose + 10% FBS, 0.569 µM | 97.3 | 124 | 98.3
RPMI 5 mM glucose + 10% FBS, 1.71 µM | 110 | 116 | 102
RPMI 5 mM glucose + 10% FBS, 5.12 µM | 97.1 | 112 | 102
RPMI 5 mM glucose + 10% FBS, 15.4 µM | 107 | 109 | 93.5
RPMI 5 mM glucose + 10% FBS, 46.1 µM | 99.4 | 68 | 7.55
RPMI 5 mM glucose + 10% dialyzed FBS, 0.000781 µM | 105 | 95.1 | 83.2
RPMI 5 mM glucose + 10% dialyzed FBS, 0.00234 µM | 102 | 109 | 101
RPMI 5 mM glucose + 10% dialyzed FBS, 0.00702 µM | 108 | 104 | 98.9
RPMI 5 mM glucose + 10% dialyzed FBS, 0.0211 µM | 107 | 104 | 102
RPMI 5 mM glucose + 10% dialyzed FBS, 0.0632 µM | 99.8 | 101 | 78.8
RPMI 5 mM glucose + 10% dialyzed FBS, 0.19 µM | 127 | 97.5 | 101
RPMI 5 mM glucose + 10% dialyzed FBS, 0.569 µM | 111 | 98 | 112
RPMI 5 mM glucose + 10% dialyzed FBS, 1.71 µM | 101 | 107 | 101
RPMI 5 mM glucose + 10% dialyzed FBS, 5.12 µM | 107 | 105 | 90.4
RPMI 5 mM glucose + 10% dialyzed FBS, 15.4 µM | 110 | 103 | 90.3
RPMI 5 mM glucose + 10% dialyzed FBS, 46.1 µM | 112 | 58.3 | 9.04

AUC of viability dose-response curve
Conditions | [4] | [5] | [6]
HPLM + 10% dialyzed FBS | 454 | 470 | 423
RPMI 5 mM glucose + 10% FBS | 469 | 466 | 430
RPMI 5 mM glucose + 10% dialyzed FBS | 465 | 467 | 436
